Results from US20120094939A1, “ANTI-VIRAL COMPOUNDS, COMPOSITIONS AND METHODS” (priority 2007, published 2012).
Where two headings read alike, the source gives them in different places.

Tested on: OR6 cells harboring full-length genotype 1b HCV replicon ORN/C-5B/KE (HCV RNA replication)
Test: microbe, parasite or virus in culture
Format: cell-based, Hepatitis C virus (strain HCV—O
Details: 48 hours; for antiviral activity (in words): OR6 full-length replicon
Source text: (§1) HCV Replicon System-Secondary Assays. For validation, OR6 cells stably harboring the full-length genotype 1 replicon, ORN/C-5B/KE9 were used to examine compound activity in a more authentic viral polyprotein context. This replicon was derived from the 1B-2 strain (strain HCV—O, genotype 1b), in which the Renilla luciferase gene is introduced as a fusion protein with neomycin to facilitate the monitoring of HCV replication. This construct contains a tissue culture adaptive mutation in the NS3 region. Cells were cultured in an identical manner to the Huh7/Rep-Feo cells.
Secondary Assays-Hit Validation. Several hits from primary HTS, as well as functionally related compounds, were purchased from Sigma (St. Louis, Mo.), Calbiochem (San Diego, Calif.), and Microsource (Gaylordsville, Conn.). […] Ten mM of stock solutions of the individual compounds to be tested was prepared in the appropriate solvent (DMSO, ethanol, or H2O, according to the manufacturer's information) and stored at −20° C. Cells were seeded into 96-well plates at a density of 2000 cells/well in 100 μL of medium. The cells were incubated for 24 hours at 37° C. to obtain the optimal level of adherence. Solutions of candidate hit compounds were added to wells to achieve final concentrations of 0.1, 1, 10, 50, and 100 μM. The final concentration of DMSO or ethanol in every well was 1% or less by volume. Mock solutions were used as a negative control. PEG-IFN and ribavirin were used as positive controls at various concentrations, alone and in combination. The plates were then incubated at 37° C. with 5% CO2 for 48 hours before they were analyzed. Luminescent signal was generated using the Renilla luciferase assay kit (Promega) according to the manufacturer's instructions. Signal was then detected using a LumiCount (Packard BioScience Company) luminometer. Cell viability was assessed using CellTiter-Glo (Promega), following the manufacturer's instructions. All experiments were performed in triplicate.
Secondary Assays-Data Analysis. Values were presented as a percentage of mock treated control, which was arbitrarily set at 100%. Data were expressed as the mean (±) SD. […] Synergy calculations were performed using CalcuSyn (Biosoft; Cambridge, England).
as §1, with “System—Secondary Assays:” for “System-Secondary Assays.”, “For replicon” for “For”, “ORN/C-5B/KE” for “ORN/C-5B/KE9”, “(Burke J. Am. Chem. Soc. (2004) 126:14095-14104).” for “to examine compound activity in a more authentic viral polyprotein context.”, “the Neomycin resistance cassette” for “neomycin”
Secondary Assays—Hit Validation: 10 mM of stock solutions of the individual compounds to be tested were prepared in DMSO and stored at −20° C. Cells were seeded into 96-well plates at a density of 2,000 cells/well in 100 μl of medium. The cells were incubated for 24 hours at 37° C. to obtain the optimal level of adherence. Solutions of candidate hit compounds were added to wells to achieve varying final concentrations between 0.01 and 100 μM. The final concentration of DMSO or ethanol in every well was 1% or less by volume. Mock solutions were used as a negative control. Peginterferon-alfa-2b (PEG-Intron; Schering Corp.; Kenilworth, N.J.) and ribavirin (Sigma; St. Louis, Mo.) were used as positive controls at various concentrations, alone and in combination. The plates were then incubated at 37° C. with 5% CO2 for 48 hours before they were analyzed. Luminescent signal was generated using the Renilla luciferase assay kit (Promega; Madison, Wis.) according to the manufacturer's instructions. Signal was then detected using a LumiCount™ (Packard BioScience Company; Downers Grove, Ill.) luminometer.

[1] = Hepatitis C virus, OR6, 48 h, read-out: IC50 (HCV RNA replication, luciferase), OR6 full-length genotype 1b replicon

| Compound | IC50 [1] | IC50 (read-out: IC50 (HCV RNA replication, luciferase), OR6 full-length genotype 1b replicon) | antiviral activity (in words) |
| --- | --- | --- | --- |
| Cc1cc(C)c(-c2cc([C@H](C)O/N=C3/[C@H]4CCn5c(=O)n(-c6ccccc6)c(=O)n5[C@H]4[C@H](O)[C@@H]4O[C@H]34)on2)c(C)c1 [BUCMLD-B10A11] | < 500 nM | – | – |
| Cc1cc2c(nc1C)CCCN2CC(C)O/N=C1/[C@H]2CCn3c(=O)n(-c4ccccc4)c(=O)n3[C@H]2[C@H](O)[C@@H]2O[C@H]12 (some centres unmarked) [BUCMLD-B10A5] | ~1000 nM | – | – |
| O=C1C2(CO)C=C(Br)C(CC2c2ccccc2)[C@@]12CO2 (some centres unmarked) [SM_A6B5_2P100] | ~7000 nM | – | – |
| CC(=O)OC[C@H]1O[C@H](CCO/N=C2/[C@H]3CCn4c(=O)n(-c5ccccc5)c(=O)n4[C@H]3[C@H](O)[C@@H]3O[C@H]23)C=C[C@@H]1OC(C)=O [BUCMLD-B10A3] | > 500 nM | < 1000 nM | – |
| O=C1C2C=C(I)C(CC2OCCCCO)[C@@]12CO2 (some centres unmarked) [SM_A5B3_2P141] | 10000 to 50000 nM | – | modest antiviral activity |
| COc1cc2c(cc1OC)-c1c/c(=N\c3c(C)cc(C)cc3C)n(C)c(=O)n1CC2 [trequinsin, reference compound] | – | – | antiviral activity at the lower concentrations of 1 and 10 μM |
